Row | Structure (SMILES) | melting point [°C]
1 | CN1CCC(C2(C(N)=O)Cc3ccc([N+](=O)[O-])cc3C2=O)CC1 (centres undefined) | 189 to 190
2 | Cc1c([N+](=O)[O-])c([N+](=O)[O-])c(Cl)c2c1=NC(=O)C(=O)N=2 | 346 to 348
3 | Nc1cc(SCc2ccc(F)cc2)nn1-c1c(Cl)cc(C(F)(F)F)cc1Cl | 112 to 113
4 | CC1(C)OC(=O)Nc2ccc(-c3ccc(F)c(Cl)c3)cc21 | 211 to 212
5 | COC(=O)C1CN(C)CCC1c1ccc(F)cc1 (centres undefined) | 88 to 89
6 | COC(=O)C(C)Oc1ccccc1S(N)(=O)=O (centres undefined) | 140 to 142
7 | CNC(=N[N+](=O)[O-])N(Cc1ccc(Cl)nc1)C(C)=O | 124 to 125
8 | CCCN1C(=O)C2(COc3cc4c(cc32)OCO4)c2ccccc21 (centres undefined) | 158 to 160
9 | C[C@H](NC(=O)[C@@H]1CCCN1CCC(=O)O)C(=O)N1CCC[C@H]1C(=O)O | 133 to 136
10 | O=C1NC(O)C2CN(Cc3ccccc3)CC12 (centres undefined) | 138
11 | O=C(O)/C=C/n1cnc2ccc(Cl)cc2c1=O | 297 to 298
12 | Cc1nc2cccnc2n(-c2ccc(F)cc2)c1=O | 270 to 271
13 | O=C(c1ccc(F)cc1)N1CCC[C@H](c2nc(-c3ccncc3)no2)C1 | 113 to 115
14 | CC[C@H]1c2cccn2-c2cc(F)c(F)cc2N1S(=O)(=O)c1ccc(O)c(C)c1 | 161 to 163
15 | CCOC(=O)NC1=NCC(c2ccc(F)cc2)N1C (centres undefined) | 117 to 118
16 | CC1(C)Oc2ccsc2C(N)C1O (centres undefined) | 111 to 116
17 | O=c1nc(-c2ccccn2)sc2ncccc12 | 235
18 | C/C(=C\c1cccc2ccccc12)C(=O)O | 155
19 | CC(=O)c1c(C(C)C)nn2c(C)cccc12 | 67.5 to 68
20 | CCN(CC)CCNC(=O)c1cc(Cl)c(N)cc1OC(C)C(C)=NO (centres undefined) | 113 to 115
21 | O=C(O)CS(=O)CCCCCNS(=O)(=O)c1ccc(Cl)cc1 (centres undefined) | 91 to 92
22 | NS(=O)(=O)C1CCCCC1=O (centres undefined) | 118 to 119
23 | CN1Cc2c(C(N)=O)ncn2-c2ccc(F)cc2C1=O | 272 to 273
24 | CC(=O)OC1COc2ccc3ncccc3c2C1 (centres undefined) | 125 to 127
25 | COC(=O)C(Cl)C(Cl)c1ccccc1 (centres undefined) | 164 to 165
26 | CC(C)(C)SC(=S)c1cc(C(C)(C)C)c(O)c(C(C)(C)C)c1 | 128 to 130

Row | Structure (SMILES) | melting point [°C]
27 | Cc1c(Sc2ccc(Cl)cc2)nn(-c2ccc(Cl)cc2)c(=O)c1C#N | 177 to 179
28 | NS(=O)(=O)c1cccc(NC(=O)c2cnn3c(C(F)F)cc(-c4ccc(Cl)c(Cl)c4)nc23)c1 | 306
29 | CC1(C)OC(=O)C(Cc2c[nH]c3ccc(Br)cc23)C(=O)O1 | 179 to 181
30 | CC1CCCCC1C(=O)Nc1ccc(-c2cnc(-c3ccc(NC(=O)c4cccnc4)cc3)[nH]2)cc1 (centres undefined) | 226 to 228
31 | CC(CCNC(=O)c1ccc(Cl)nc1)n1ccnc1 (centres undefined) | 137 to 139
32 | CC1NC(=O)NN=C1c1ccc2c(c1)C(C)(C)C(=O)N2 (centres undefined) | 292
33 | CCOC(=O)c1cn(NC=O)c2cc(Cl)c(F)cc2c1=O | 263 to 264
34 | C=CCOc1noc2ccc(N3C(=O)C4=C(CCCC4)C3=O)cc12 | 88 to 89
35 | CCCN1CC(c2ccc(S(C)(=O)=O)cc2)=C(c2cccc(C)c2)C1=O | 120 to 122
36 | CC(CC(=O)c1ccc(C(N)=S)cc1)C(=O)N1CCC(OCC(=O)OC(C)(C)C)CC1 (racemic) | 152 to 155
37 | O=C(NCC1CCCCC1)NCC1CCCCC1 | 150 to 152
38 | CCc1cc(CC)c(-c2c(O)c(C)nn(C)c2=O)c(CC)c1Cl | 225 to 226
39 | CC(C)(C)OC(=O)N1CCN(c2ccnc3sc(C(N)=O)c(N)c23)CC1 | 198 to 203
40 | CC1(CF)C(=O)N(c2ccc(C#N)c(C(F)(F)F)c2)C(=O)N1CC#N (centres undefined) | 175
41 | CC(=O)N1CCN(c2ccc(N)cc2)CC1 | 142 to 144
42 | O=C(O)c1nc(-c2ccc(Cl)cc2Cl)c(-c2ccc(Br)cc2)s1 | 94 to 95
43 | N#CCCCCCN1CCc2c(c3cc(F)ccc3n2-c2ccc(F)cc2)C1 | 90 to 98
44 | O=C(Nc1ccc([N+](=O)[O-])cc1)C(=O)N1CCC(Cc2ccc(F)cc2)CC1 | 157 to 159
45 | O=C(N[C@H]1CC[C@H](CCN2CCN(c3nccc4c3CCO4)CC2)CC1)c1ccc2c(c1)OCO2 | 244
46 | CC(C)[Si](C)(C)CCSCCNC(=O)n1cc(F)c(=O)[nH]c1=O | 85 to 86
47 | O=C(O)c1ccccc1C(=O)C=Cc1cc(O)c(O)c([N+](=O)[O-])c1 | 178 to 180
48 | CC(=O)C1C(C(=O)c2ccc(Br)cc2)CC2C3CCC4=CC(=O)C=CC4(C)C3(F)C(O)CC21C (centres undefined) | 285 to 286
49 | CC(C)(C)SC1CC(=O)N1CC(=O)OCc1ccc([N+](=O)[O-])cc1 (centres undefined) | 82.5 to 84
50 | CCCCOC(=O)NCc1cccc(C(=O)C=CN(C)C)c1 | 80 to 82
51 | CN(C)C(c1ccccc1)C1CCCCC1(O)Cc1cccc(F)c1 (centres undefined) | 146 to 147
52 | O=[N+]([O-])c1cccc2c1COCO2 | 76 to 77

Now from value to compound:

Row | melting point [°C] | Structure (SMILES)
53 | 85 to 86 | COc1ccc(CCNCC(O)c2cc(OCc3ccccc3)cc(OCc3ccccc3)c2)cc1OC (centres undefined)
54 | 58 to 60 | O=S(=O)(Cl)CCCCCc1ccc(OCc2ccccc2)cc1
55 | 95 to 98 | CC1(Cc2cccc(N)c2)Cc2ccccc2C1=O (centres undefined)
56 | 143 to 144 | COC(=O)c1cn(-c2ccc3ccccc3c2)cn1
57 | 183 | NC(=O)c1ccc(C=CC(=O)N2CCc3c([nH]c4ccccc34)C2c2ccc3c(c2)OCO3)cc1 (centres undefined)
58 | 79 to 81 | CCC(=O)Nc1ccc(Oc2cccc(OC)c2)cc1
59 | 65 to 66 | ClCCCCOc1ccc(Br)c(CCOCc2ccccc2)c1
60 | 127 to 128 | COc1cc(/C=C/c2ccc(C(C)(C)C)cc2)cc(OC)c1OC
61 | 100 | O=C(O)COCCN1CCN(C(c2ccccc2)c2ccccc2)CC1
62 | 159 | Cn1cncc1C(N)(c1ccc(Cl)cc1)c1ccc2c(c1)c(-c1cccc(Cl)c1)nc1nnnn12 (centres undefined)
63 | 130 to 131 | NC(=O)CC1CN=C(c2cc3cccc(NS(=O)(=O)c4cccs4)c3[nH]2)S1 (centres undefined)
64 | 151 to 152 | CN1CCN(c2cccc3c2C[C@H](NC(=O)Cc2ccccc2)CC3)CC1
65 | 141 to 142 | COC(=O)c1ccc(OCCCN(C(N)=O)c2ccc(Cl)cc2)cc1
66 | 139 to 146 | O=C1CCCN1CCCNCc1ccc(-c2cc3ncnc(Nc4ccc5[nH]ccc5c4)c3s2)cc1
67 | 155 | Cn1c(=O)cc(-c2ccccc2)c2cc(C(c3ccc(Cl)cc3)n3ccnc3)ccc21 (centres undefined)
68 | 160 to 164 | CC(C)C[C@@H](CO)NC(=O)N1C(=O)C(OC(=O)N2CCN(c3ccncc3)CC2)(c2ccccc2OC(C)C)c2cc(Cl)ccc21 (some centres undefined)
69 | 75 to 78 | O=c1nc(NCc2ccccc2F)c(F)cn1-c1ccsc1
70 | 129 to 130 | CCCCSc1c(CC(C)(C)C(=O)O)n(Cc2ccc(Cl)cc2)c2ccc(C(C)C)cc12
71 | 240 to 242 | NC(=O)c1cccc2c1c1c(OCC(=O)O)ccc(Cl)c1n2Cc1ccccc1
72 | 240 to 241 | Cc1ccccc1C(=O)Nc1ccc(C(=O)N2CCS(=O)c3ccccc32)cc1 (centres undefined)
73 | 103 to 105 | CN(CC(=O)c1cccn1Cc1ccccc1[N+](=O)[O-])Cc1ccccc1
74 | 144 to 147 | CN(CCOc1ccc(CC(Sc2ccccc2)C(=O)O)cc1)c1nc2ccccc2o1 (centres undefined)
75 | 172 to 173 | O=C1C2CCCC2Nc2ccccc2N1Cc1ccccc1 (centres undefined)
76 | 170 to 173 | Cc1cc(SC(C)c2ccc3nc(-c4ccc(C(F)(F)F)cc4)sc3c2)ccc1OCC(=O)O (centres undefined)

Row | melting point [°C] | Structure (SMILES)
77 | 129 to 132 | CCC1(O)C(C)=CC(=O)N1Cc1ccccc1 (centres undefined)
78 | 175 to 176 | COCCCNC(=O)Nc1ccc(N2CCOCC2)cc1C(=O)NCC1CCN(C(c2ccccc2)c2ccccc2)CC1
79 | 148 to 149 | O=Cc1c(-c2ccc(Cl)cc2)nsc1-c1ccccc1
80 | 243 to 244 | Cn1nc(-c2ccc(C(=O)O)cc2)nc1-c1ccccc1
81 | 265 to 266 | COc1ccc(Cl)cc1-c1c(N)c(=O)[nH]c2c(C(F)(F)F)cccc12
82 | 125 to 127 | CN(C)C(=O)c1ccccc1CC(=O)Nc1cccc(/C=C/c2nc(C3CCC3)cs2)c1
83 | 192 to 195 | Cc1ccccc1[C@H]1O[C@H](CC(=O)O)C(=O)N(CC(C)C)c2ccccc21 (relative stereo)
84 | 136 to 139 | Cc1cccc(-c2[nH]c(C(C)C)nc2-c2cccc(-c3ccc4c(c3)CCCS4=O)c2)n1 (centres undefined)
85 | 128 to 130 | Cc1cccc(C)c1C1CCN(Cc2cc3ccccc3[nH]2)CC1
86 | 227 to 228 | CCOC(=O)N(CCNc1ccc2ncc(-c3ccc(C(N)=O)cc3)n2n1)c1ccccc1
87 | 109 | CN(C)CCOc1ccc2ccc(NC(=O)c3ccccc3)nc2n1
88 | 251 to 256 | COc1ccccc1Oc1c(NS(=O)(=O)c2ccc(C(C)(C)C)cc2)nc(-c2ncccn2)nc1OCCOc1ccc(Br)cc1
89 | 184 to 186 | CS(=O)(=O)Nc1cc(C(=O)c2ccccc2)ccc1N
90 | 158 | O=C(C=Cc1ccc([N+](=O)[O-])cc1)N1CCc2c([nH]c3ccccc23)C1c1ccc2c(c1)OCO2 (centres undefined)
91 | 243 to 245 | COc1cc2c(Nc3ccc4cn[nH]c4c3)c(C#N)cnc2c(OC)c1OC
92 | 113 to 117 | CCCc1nccn1Cc1ccc2c(c1)Cc1c(-c3ccsc3)n[nH]c1-2
93 | 245 to 246 | C[C@H](NC(=O)OCc1ccccc1)C(=O)Nc1ccc(S(N)(=O)=O)cc1
94 | 76 to 78 | O=C(CCc1ccc2ccccc2c1)c1cnc2sc3c(n12)CCCCC3
95 | 78 to 79 | CCCOc1ccc(S(=O)(=O)N2CCN(CCOC(=O)c3ccccc3)CC2)cc1-c1nc2c(CCC)cn(CC)c2c(=O)[nH]1
96 | 213 to 217 | Nc1nc(=O)n(COCc2ccccc2)cc1F
97 | 162 to 163 | CNC(=O)C(O)C(Oc1ccccc1[N+](=O)[O-])c1ccccc1 (centres undefined)
98 | 155 to 156 | CSc1cc(CCC(=O)OC(C)(C)C)nc(-c2nc(=O)c3ccccc3s2)c1
99 | 166 to 168 | O=C(O)Cc1ccc2c(c1)-c1ccccc1C2
